The subject of series [1] is pancreatin. The method, then:
Both media are from the company Biorelevant®, Ltd. in Great Britain. In addition, in some experiments porcine pancreas is added (Panzytrat® 40,000, Fa. Allergan).
The pancreatin is used in the form of the commercially available product Panzytrat® 40,000 from the Allergan company. The whole mixture is stirred on a hotplate at 50° C.; the course of the reaction is determined and followed by continuous recording of the acid number over time.

The conditions of series [2]: even if several grams are taken; cited from earlier work.

Take “3-acetylacetobutyric acid mono-diglycerol ester [3-acetylaceto-BHB mono-diglycerol ester]”: the cleavage by pancreatin entry in series [1] is “cleaved by pancreatin”.

For the compound “3-acetylacetobutyric acid di-diglycerol ester [3-acetylaceto-BHB di-diglycerol ester]”, the cleavage by pancreatin entry in series [1] is given as “cleaved by pancreatin”.

On to “3-acetylacetobutyric acid tri-diglycerol ester [3-acetylaceto-BHB tri-diglycerol ester]”, for which the cleavage by pancreatin result in series [1] was “cleaved by pancreatin”.

For `CC(O)CC(=O)O` (stereo not shown) [3-hydroxybutyric acid], the duration of ketosis result in series [2] is given as “three to four”.

The values above are taken from patent publication US12674026B2, “Process for preparing polyol-based esters of acyl-capped hydroxy carboxylic acids” (KetoLipix Therapeutics GmbH, priority 2019, dated 2026).
